Results on 1 compound are retold here after patent US20130108573A1, “Bile Acid Recycling Inhibitors for Treatment of Hypercholemia and Cholestatic Liver Disease” (Lumena Pharmaceuticals, Inc., priority 2011, published 2013).

This experiment deals with Serum Bile Acid and Fecal Bile Acid. Put plainly: Phase 1 ascending multiple oral dose study of LUM001 in healthy adult subjects: serum and fecal bile acid analysis. It is filed as in vivo, human. Particulars: ascending multiple oral doses, 28 days, vs placebo. On the procedure: This Phase 1 study was a randomized, double-blind, placebo-controlled study of ascending multiple oral doses of LUM001 in healthy, adult subjects. This study was conducted at a single center. There were 13 LUM001 dosing panels: 10, 20, 60, 100, and 20 mg every morning (qAM) (2) (i.e., the regimen was tested a second time in the study), 5 mg every evening (qPM), 0.5, 1, 2.5, 5, 2.5 (2), 5 (2), and 0.5 to 5 mg qAM dose titration. Most of the dosing panels included subjects treated with matching placebo. Shown in the graphs are data from the 0.5 (n=16), 1.0 (n=8), 2.5 (n=8), 5.0 (n=8) and 10 (n=8) mg dosing groups. […]
SBA were analyzed as part of the routine clinical analysis of the serum samples collected at each time point.
Fecal samples were collected for all panels except the dose-titration panel, 2.5 (2) and 5 mg (2), on Days 9 through 14 and 23 through 28 (data shown in FIG. 4). Twenty-four hour FBA excretions were quantified by Pharmacia for Days 9 through 14 and 23 through 28. […] The weight of each 24-hour fecal collection was recorded on the CRFs. […]
An aliquot for each 24-hour fecal sample collected on Days 23 through 28 was combined, homogenized, and analyzed for bile acid species concentrations by ANAPHARM. The fecal bile acid species evaluated include chenodeoxycholic acid, cholic acid, deoxycholic acid, and lithocholic acid.

Consider `CCCCC1(CCCC)CS(=O)(=O)c2ccc(N(C)C)cc2[C@@H](c2ccc(OCc3ccc(C[N+]45CCN(CC4)CC5)cc3)cc2)[C@H]1O` [LUM001], for which the Fecal bile acids entry is “significant increase” and the Serum bile acids entry is recorded as “significant reduction”.
